Laboratory results reported in ChEMBL document CHEMBL5055683, “Synthetic Sansanmycin Analogues as Potent Mycobacterium tuberculosis Translocase I Inhibitors” (J Med Chem, 2021).
In brackets after ≈: the same amount, converted by molar mass. Activity calls are given as the source filed them. The calls are words filed in the database; no cut-off is given here.

What was measured:
[1] = system: Mycobacterium tuberculosis H37Rv; test: Antimycobacterial activity against Mycobacterium tuberculosis H37Rv infected in human THP-1 macrophages assessed as reduction in microbial growth incubated for 72 hrs; assay type: functional
[2] = Inhibition of Mycobacterium tuberculosis MurX using UDP-MurNAc-dansylpentapeptide as substrate by fluorescence assay
[3] = system: Mycobacterium tuberculosis H37Rv; test: Antimycobacterial activity against Mycobacterium tuberculosis H37Rv assessed as reduction in bacterial growth incubated for 5 days by resazurin assay; assay type: functional; settings: 120 h, time 5 day
Mycobacterium marinum [4] = test: Antimycobacterial activity against Mycobacterium marinum infected in zebrafish assessed as reduction in bacterial burden at 100 uM after 5 days post infection by microscopic analysis; assay type: functional, organism-based; settings: time 5.0 day
Staphylococcus aureus = test: Antibacterial activity against Staphylococcus aureus ATCC 29213 assessed as reduction in bacterial growth measured every 1 hr for 16 to 20 hrs; assay type: functional; settings: time 16-20 hrs
[5] = system: Mycobacterium tuberculosis; test: Antimycobacterial activity against Mycobacterium tuberculosis mc2 6230 assessed as reduction in bacterial growth incubated for 10 days by time-kill kinetics method; assay type: functional; settings: mc2 6230, 240 h, time 10 day
Pseudomonas aeruginosa = test: Antibacterial activity against Pseudomonas aeruginosa ATCC 27853 assessed as reduction in bacterial growth measured every 1 hr for 16 to 20 hrs; assay type: functional; settings: time 16-20 hrs
[6] = system: Mycolicibacterium fortuitum; test: Antimycobacterial activity against Mycobacterium fortuitum PN assessed as reduction in bacterial growth measured every 1 hr for 16 to 20 hrs; assay type: functional; settings: time 16-20 hrs
[7] = system: Mycobacteroides abscessus; test: Antimycobacterial activity against Mycobacterium abscessus RA 16 assessed as reduction in bacterial growth measured every 1 hr for 16 to 20 hrs; assay type: functional; settings: time 16-20 hrs
Escherichia coli = test: Antibacterial activity against Escherichia coli BW25113 assessed as reduction in bacterial growth measured every 1 hr for 16 to 20 hrs; assay type: functional; settings: time 16-20 hrs
Mycobacterium marinum [8] = test: Antimycobacterial activity against Mycobacterium marinum infected in zebrafish assessed as reduction in bacterial burden at 100 uM after 3 days post infection by microscopic analysis; assay type: functional, organism-based; settings: time 3.0 day
[9] = Antimycobacterial activity against Mycobacterium abscessus subsp. abscessus assessed as reduction in bacterial growth measured every 1 hr for 16 to 20 hrs; assay type: functional; settings: Mycobacteroides abscessus; time 16-20 hrs
[10] = system: Staphylococcus epidermidis; test: Antibacterial activity against Staphylococcus epidermidis assessed as reduction in bacterial growth measured every 1 hr for 16 to 20 hrs; assay type: functional; settings: time 16-20 hrs
Bacillus subtilis = test: Antibacterial activity against Bacillus subtilis 168 assessed as reduction in bacterial growth measured every 1 hr for 16 to 20 hrs; assay type: functional; settings: time 16-20 hrs
[11] = system: Mycolicibacterium fortuitum; test: Antimycobacterial activity against Mycobacterium fortuitum RA 17 assessed as reduction in bacterial growth measured every 1 hr for 16 to 20 hrs; assay type: functional; settings: time 16-20 hrs
[12] = system: Mycobacterium tuberculosis; test: Bacteriostatic activity against Mycobacterium tuberculosis mc2 6230 at 10 times MIC after 28 days by time-kill kinetics method; assay type: functional, organism-based; settings: time 28.0 day
Enterococcus faecium = test: Antibacterial activity against Enterococcus faecium ATCC 6569 assessed as reduction in bacterial growth measured every 1 hr for 16 to 20 hrs; assay type: functional; settings: time 16-20 hrs
Mycobacterium avium = test: Antimycobacterial activity against Mycobacterium avium CA 6 assessed as reduction in bacterial growth measured every 1 hr for 16 to 20 hrs; assay type: functional; settings: time 16-20 hrs

Structure (SMILES): C[C@@H]([C@H](NC(=O)[C@H](CC1CCCCC1)NC(=O)N[C@@H](Cc1c[nH]c2ccccc12)C(=O)OCc1ccccc1)C(=O)NC[C@H]1C[C@@H](O)[C@H](n2ccc(=O)[nH]c2=O)O1)N(C)C(=O)CN
- MIC50 [1]: 11.3 µM
- IC50 [2]: 0.614 µM
- MIC50 [3]: 0.0085 µM (≈ 0.00741 µg/mL)

Structure (SMILES): CCCCCCOC(=O)[C@H](Cc1c[nH]c2ccccc12)NC(=O)N[C@@H](CC1CCCCC1)C(=O)N[C@H](C(=O)NC[C@H]1C[C@@H](O)[C@H](n2ccc(=O)[nH]c2=O)O1)[C@H](C)N(C)C(=O)CN
- MIC50 [1]: 9.5 µM
- IC50 [2]: 1.39 µM
- MIC50 [3]: 0.0172 µM (≈ 0.0149 µg/mL)

Structure (SMILES): C[C@@H]([C@H](NC(=O)[C@H](Cc1ccc2ccccc2c1)NC(=O)N[C@@H](Cc1c[nH]c2ccccc12)C(=O)OCc1ccccc1)C(=O)NC[C@H]1C[C@@H](O)[C@H](n2ccc(=O)[nH]c2=O)O1)N(C)C(=O)CN
- MIC50 [1]: 5.1 µM
- IC50 [2]: 1.38 µM
- MIC50 [3]: 0.0132 µM (≈ 0.0121 µg/mL)

Structure (SMILES): COC(=O)[C@H](Cc1c[nH]c2ccccc12)NC(=O)N[C@@H](CC1CCCCC1)C(=O)N[C@H](C(=O)NC[C@H]1C[C@@H](O)[C@H](n2ccc(=O)[nH]c2=O)O1)[C@H](C)N(C)C(=O)CN
- MIC50 [3]: 0.0397 µM (≈ 0.0316 µg/mL)

Structure (SMILES): C[C@@H]([C@H](NC(=O)[C@H](Cc1ccc2ccccc2c1)NC(=O)N[C@@H](Cc1c[nH]c2ccccc12)C(=O)O)C(=O)NC[C@H]1C[C@@H](O)[C@H](n2ccc(=O)[nH]c2=O)O1)N(C)C(=O)CN
- MIC50 [1]: 4.3 µM
- MIC50 [3]: 0.18 µM (≈ 0.149 µg/mL)

Structure (SMILES): CCCCCCCCCCCCOC(=O)[C@H](Cc1c[nH]c2ccccc12)NC(=O)N[C@@H](Cc1ccc2ccccc2c1)C(=O)N[C@H](C(=O)NC[C@H]1C[C@@H](O)[C@H](n2ccc(=O)[nH]c2=O)O1)[C@H](C)N(C)C(=O)CN
- MIC50 [3]: 0.192 µM (≈ 0.191 µg/mL)

Structure (SMILES): CCCCCCNC(=O)[C@H](Cc1c[nH]c2ccccc12)NC(=O)N[C@@H](CC1CCCCC1)C(=O)N[C@H](C(=O)NC[C@H]1C[C@@H](O)[C@H](n2ccc(=O)[nH]c2=O)O1)[C@H](C)N(C)C(=O)CN
- MIC50 [1]: > 100 µM
- IC50 [2]: 0.075 µM
- MIC50 [3]: 0.124 µM (≈ 0.107 µg/mL)

Structure (SMILES): CO[C@H]1/C=C/O[C@@]2(C)Oc3c(C)c(O)c4c(O)c(c(/C=N/N5CCN(C)CC5)c(O)c4c3C2=O)NC(=O)/C(C)=C\C=C\[C@H](C)[C@H](O)[C@@H](C)[C@@H](O)[C@@H](C)[C@H](OC(C)=O)[C@@H]1C [RIFAMPIN]
- MIC50 [3]: 0.00153 µM (≈ 0.00126 µg/mL)
- Activity (Mycobacterium marinum [4]): Active

Structure (SMILES): C[C@@H]([C@H](NC(=O)[C@H](Cc1ccc2ccccc2c1)NC(=O)N[C@@H](Cc1c[nH]c2ccccc12)C(=O)OCC(C)(C)C)C(=O)NC[C@H]1C[C@@H](O)[C@H](n2ccc(=O)[nH]c2=O)O1)N(C)C(=O)CN
- MIC50 [1]: 1.5 µM
- IC50 [2]: 0.801 µM
- MIC50 [3]: 0.021 µM (≈ 0.0188 µg/mL)

Structure (SMILES): CCCCCCNC(=O)[C@H](Cc1c[nH]c2ccccc12)NC(=O)N[C@@H](Cc1ccc2ccccc2c1)C(=O)N[C@H](C(=O)NC[C@H]1C[C@@H](O)[C@H](n2ccc(=O)[nH]c2=O)O1)[C@H](C)N(C)C(=O)CN
- MIC50 [1]: 2.1 µM
- IC50 [2]: 0.049 µM
- MIC50 [3]: 0.0925 µM (≈ 0.0841 µg/mL)

Structure (SMILES): C[C@@H]([C@H](NC(=O)[C@H](CC1CCCCC1)NC(=O)N[C@@H](Cc1c[nH]c2ccccc12)C(=O)NCc1ccccc1)C(=O)NC[C@H]1C[C@@H](O)[C@H](n2ccc(=O)[nH]c2=O)O1)N(C)C(=O)CN
- MIC50 [1]: 4.6 µM
- IC50 [2]: 0.066 µM
- MIC50 [3]: 0.0454 µM (≈ 0.0395 µg/mL)

Structure (SMILES): CCCCCCOC(=O)[C@H](Cc1c[nH]c2ccccc12)NC(=O)N[C@@H](Cc1ccc2ccccc2c1)C(=O)N[C@H](C(=O)NC[C@H]1C[C@@H](O)[C@H](n2ccc(=O)[nH]c2=O)O1)[C@H](C)N(C)C(=O)CN
- MIC50 [1]: 0.5 µM
- IC50 [2]: 2.67 µM
- MIC50 [3]: 0.0269 µM (≈ 0.0245 µg/mL)

Structure (SMILES): C[C@@H]([C@H](NC(=O)[C@H](Cc1ccc2ccccc2c1)NC(=O)N[C@@H](Cc1c[nH]c2ccccc12)C(=O)NCC(C)(C)C)C(=O)NC[C@H]1C[C@@H](O)[C@H](n2ccc(=O)[nH]c2=O)O1)N(C)C(=O)CN
- MIC (Staphylococcus aureus): > 132 µM
- MIC50 [1]: 1.2 µM
- IC50 [2]: 0.02 µM
- MIC50 [3]: 0.0419 µM (≈ 0.0375 µg/mL)
- MIC [5]: 0.181 µM (≈ 0.162 µg/mL)
- MIC (Pseudomonas aeruginosa): > 132 µM
- MIC [6]: 2 µM (≈ 1.79 µg/mL)
- MIC [7]: 13 µM (≈ 11.6 µg/mL)
- MIC (Escherichia coli): 132 µM (≈ 118 µg/mL)
- Activity (Mycobacterium marinum [8]): Active
- MIC [9]: 26 µM (≈ 23.3 µg/mL)
- MIC [10]: > 132 µM
- MIC (Bacillus subtilis): 132 µM (≈ 118 µg/mL)
- MIC [11]: 1 µM (≈ 0.895 µg/mL)
- Activity [12]: Active
- MIC (Enterococcus faecium): > 132 µM
- MIC (Mycobacterium avium): 1 µM (≈ 0.895 µg/mL)

Structure (SMILES): CCCCCCCCCCCCOC(=O)[C@H](Cc1c[nH]c2ccccc12)NC(=O)N[C@@H](CC1CCCCC1)C(=O)N[C@H](C(=O)NC[C@H]1C[C@@H](O)[C@H](n2ccc(=O)[nH]c2=O)O1)[C@H](C)N(C)C(=O)CN
- MIC50 [3]: 0.142 µM (≈ 0.135 µg/mL)

Structure (SMILES): C[C@@H]([C@H](NC(=O)[C@H](CC1CCCCC1)NC(=O)N[C@@H](Cc1c[nH]c2ccccc12)C(=O)NCC(C)(C)C)C(=O)NC[C@H]1C[C@@H](O)[C@H](n2ccc(=O)[nH]c2=O)O1)N(C)C(=O)CN
- MIC (Staphylococcus aureus): > 132 µM
- MIC50 [1]: 6.7 µM
- IC50 [2]: 0.06 µM
- MIC50 [3]: 0.0225 µM (≈ 0.0191 µg/mL)
- MIC [5]: 0.313 µM (≈ 0.266 µg/mL)
- MIC (Pseudomonas aeruginosa): > 132 µM
- MIC [6]: 1 µM (≈ 0.851 µg/mL)
- MIC [7]: 23 µM (≈ 19.6 µg/mL)
- MIC (Escherichia coli): 88 µM (≈ 74.9 µg/mL)
- MIC [9]: 23 µM (≈ 19.6 µg/mL)
- MIC [10]: > 132 µM
- MIC (Bacillus subtilis): > 132 µM
- MIC [11]: 1 µM (≈ 0.851 µg/mL)
- Activity [12]: inactive
- MIC (Enterococcus faecium): > 132 µM
- MIC (Mycobacterium avium): 1 µM (≈ 0.851 µg/mL)

Structure (SMILES): C[C@@H]([C@H](NC(=O)[C@H](CC1CCCCC1)NC(=O)N[C@@H](Cc1c[nH]c2ccccc12)C(=O)OCC(C)(C)C)C(=O)NC[C@H]1C[C@@H](O)[C@H](n2ccc(=O)[nH]c2=O)O1)N(C)C(=O)CN
- MIC50 [1]: 12.5 µM
- IC50 [2]: 0.712 µM
- MIC50 [3]: 0.0059 µM (≈ 0.00503 µg/mL)

Structure (SMILES): C[C@@H]([C@H](NC(=O)[C@H](CC1CCCCC1)NC(=O)N[C@@H](Cc1c[nH]c2ccccc12)C(=O)O)C(=O)NC[C@H]1C[C@@H](O)[C@H](n2ccc(=O)[nH]c2=O)O1)N(C)C(=O)CN
- MIC50 [1]: 1.6 µM
- IC50 [2]: 0.054 µM
- MIC50 [3]: 0.08 µM (≈ 0.0625 µg/mL)

Structure (SMILES): COC(=O)[C@H](Cc1c[nH]c2ccccc12)NC(=O)N[C@@H](Cc1ccc2ccccc2c1)C(=O)N[C@H](C(=O)NC[C@H]1C[C@@H](O)[C@H](n2ccc(=O)[nH]c2=O)O1)[C@H](C)N(C)C(=O)CN
- MIC50 [3]: 0.0652 µM (≈ 0.0548 µg/mL)

Structure (SMILES): C[C@@H]([C@H](NC(=O)[C@H](Cc1ccc2ccccc2c1)NC(=O)N[C@@H](Cc1c[nH]c2ccccc12)C(=O)NCc1ccccc1)C(=O)NC[C@H]1C[C@@H](O)[C@H](n2ccc(=O)[nH]c2=O)O1)N(C)C(=O)CN
- MIC50 [1]: 1.9 µM
- IC50 [2]: 0.034 µM
- MIC50 [3]: 0.0741 µM (≈ 0.0678 µg/mL)
